Reference: patent publication US12496284B2, “Use of itaconate and its derivatives/analogues to induce hair growth” (The Johns Hopkins University, priority 2019, dated 2025)
“Also recorded” adds a separate entry of the source.

What was measured:
TLR3/IL6/STAT3 axis = experiment: Treatment of human keratinocytes (NHEKs) with itaconate prodrugs, poly(I:C) challenge, qRT-PCR; format: cell-based; details: NHEKs pre-treated 2 days, then poly(I:C) for 24 hours, mRNA by qRT-PCR, FIG. 4, FIG. 6
Procedure: Neonatal human epidermal keratinocytes (NHEKs) isolates from neonatal foreskin were seeded at a density of 100,000 cells per well and were maintained in KGM supplemented with growth factors (KGM-GOLD Bullet kit, #192060). Prodrugs were reconstituted in DMSO. NHEKs were pre-treated with either vehicle (0.1% DMSO) or prodrug. After 2 days, NHEKs were treated with […] poly(I:C) for 24 hours.
Total RNA was isolated and purified from cultured NHEKs using the RNeasy Mini Kit (Qiagen, Valencia, CA, #74106). After assessing RNA purity and concentrations using a NanoDrop 2000 UV-Vis spectrophotometer, RNA was converted to cDNA using a reverse-transcription kit and random hexamer primers (Applied Biosystems, #4368814). mRNA expression was determined by qRT-PCR using gene-specific, fluorophore-based TaqMan probes and universal master mix (Applied Biosystems, #4366072). The qRT-PCR reactions were multiplexed using target and reference gene (RPLPO) probes. Relative mRNA fold changes were then quantified using the […] method.
Next, whether itaconate derivatives, such as itaconate prodrugs, have this same capacity was tested. To screen for compounds, those that behaved in vitro with similar properties to itaconate were evaluated. First, the molecular effect of dimethyl itaconate (DI) to blunt dsRNA (PIC; Polyinosinic:polycytidylic acid) effect at increasing TLR3, IL-6, and STAT3 expression was tested.
Next, the ability of synthesized itaconate prodrugs to behave similarly in the in vitro assay was tested. […] Methods are as above, but substituting the […].

C57BL6/J mice = experiment: Hair growth (telogen to anagen transition) after topical treatment of shaved mice; format: in vivo; details: for hair growth compared with JAK inhibitors: 3% each diluted in DMSO, topical, FIG. 9
Procedure: All adult wild-type (C57BL6/J) mice were approximate 8.5 weeks old and obtained from Jackson Labs (#00664). All animals were maintained in an AAALAC (Accreditation of Laboratory Animal Care International)—approved facility at Johns Hopkins University. All experimental procedures were approved by the Institutional Animal Care and Use Committee at Johns Hopkins under the protocol #MO17M298.
(§1) Adult C57BL6/J mice were treated during the refractory period of hair dormancy (telogen) to allow for hair growth (anagen) re-initiation. To determine the anagen re-entry, mice were grossly observed for skin thickening and darkening. Mice were shaved on their dorsal side and the left half the skin was topically treated with either vehicle (DMSO) or prodrug (20% IS-100-142 (compound 5)) with the right side untreated. The treatment regimen was once every other day for a total of two treatment cycles.
In one aspect, the presently disclosed subject matter is directed to compounds that might be able to enhance hair growth. To this end, the ability of dimethyl itaconate to induce the transition from the resting phase of the hair cycle, telogen, to the growing phase of the hair cycle, anagen, in wild type mice was tested.
Finally, the ability of compound 5 to also induce hair growth as observed for DI was tested. […] Here mice were treated as above, except the left side was treated with either compound 5 or DMSO and the right side was left untreated. The small amount of hair growth in the DMSO treated mouse was from the natural anagen cycle beginning.
as §1, with “All adult wild-type (C57BL6/J) mice were approximate 8.5 weeks old and obtained from Jackson Labs. Animals were fed standard mouse diet. […] Adult” for “Adult”, “right” for “left”, “dimethyl itaconate (20%) or with 1% compound 5, 2% compound 5 or 5% compound 5” for “prodrug (20% IS-100-142 (compound 5))”, “left” for “right”, “or three treatments with similar results.” for “treatment cycles.”

[1] = Mouse skin penetration in Alopecia model; format: in vivo; details: dose 5% w/v
From the text: Referring now to FIG. 12, mouse skin penetration in an Alopecia model for IS-100-142 (compound 5) (left panel) and monomethyl itaconate (right panel) is shown.

Row | intact prodrug levels, skin versus plasma ([1]; topical application in DMSO, FIG. 12 left panel) | monomethyl itaconate levels, skin versus plasma ([1]; topical application of IS-100-142 in DMSO, FIG. 12 right panel) | Structure (SMILES) | inhibition of dsRNA (poly(I:C)) effect at increasing TLR3, IL-6 and STAT3 expression (downstream gene targets TLR3, IL6, STAT3, WNT7B) (TLR3/IL6/STAT3 axis) | inhibition of dsRNA (poly(I:C)) effect at increasing TLR3, IL-6 and STAT3 expression (downstream gene targets TLR3, IL6, STAT3, WNT7B) (TLR3/IL6/STAT3 axis; listed as IS-100-142) | transition of hair follicle from telogen to anagen (hair growth) (C57BL6/J mice; 1%, 2% or 5% compound 5 topical on right half of skin, once every other day, two or three treatments, FIG. 8) | hair growth compared with JAK inhibitors (C57BL6/J mice) | hair growth (C57BL6/J mice; 20% compound 5 in DMSO, topical on left half of shaved dorsal skin, once every other day, two treatment cycles, FIG. 7) | inhibition of dsRNA (poly(I:C)) effect at increasing TLR3, IL-6 and STAT3 expression (downstream gene targets TLR3, IL6, STAT3, WNT7B) (TLR3/IL6/STAT3 axis; listed as DI) | transition from telogen (resting phase) to anagen (growing phase) of the hair cycle (C57BL6/J mice; 20% dimethyl itaconate, wild type mice, FIG. 5)
1 | higher in skin versus plasma | higher in skin versus plasma | C=C(CC(=O)OC)C(=O)OCOC(=O)OC(C)C [Compound 5] | potently inhibited the same dsRNA response as DI | inhibits JAK-STAT signaling most effectively | promote transition of hair follicle from telogen (quiescence phase) to anagen (growing phase); also recorded: induces hair growth | comparable levels as Ruxolitinib and Tofacitinib | induces hair growth |  | 
2 |  |  | C[C@@H]1CCN(C(=O)CC#N)C[C@@H]1N(C)c1ncnc2[nH]ccc12 [Tofacitinib, reference compound] |  |  |  | comparable levels |  |  | 
3 |  |  | C=C(CC(=O)OC)C(=O)OC [dimethyl itaconate, reference compound] | blunt dsRNA |  |  |  |  | potently inhibits those markers | potently induced this transition; also recorded: induces the transition
